{"source": "patent US10736868B2", "about": "“Compositions comprising rumenic acid-rich conjugated linoleic acid for brain health” (STEPAN SPECIALTY PRODUCTS, LLC, priority 2016, dated 2020)", "origin": "cited, not measured here", "key": {"cognitive function [1]": {"tested_on": "cognitive function", "settings": "hypertensive older adults"}, "cognitive function [2]": {"tested_on": "cognitive function", "settings": "hypertensive older adults", "remark": "listed apart in the source"}, "[3]": {"tested_on": "allergic responses mediated by inflammation", "settings": "8 weeks; young men and women with birch pollen allergy"}, "PPARγ [4]": {"molecular_target": "T1, PPARγ (Homo sapiens, UniProt P37231)", "T1 construct": "host or cells: human epithelial cells", "T1 sequence (P37231 1-505)": "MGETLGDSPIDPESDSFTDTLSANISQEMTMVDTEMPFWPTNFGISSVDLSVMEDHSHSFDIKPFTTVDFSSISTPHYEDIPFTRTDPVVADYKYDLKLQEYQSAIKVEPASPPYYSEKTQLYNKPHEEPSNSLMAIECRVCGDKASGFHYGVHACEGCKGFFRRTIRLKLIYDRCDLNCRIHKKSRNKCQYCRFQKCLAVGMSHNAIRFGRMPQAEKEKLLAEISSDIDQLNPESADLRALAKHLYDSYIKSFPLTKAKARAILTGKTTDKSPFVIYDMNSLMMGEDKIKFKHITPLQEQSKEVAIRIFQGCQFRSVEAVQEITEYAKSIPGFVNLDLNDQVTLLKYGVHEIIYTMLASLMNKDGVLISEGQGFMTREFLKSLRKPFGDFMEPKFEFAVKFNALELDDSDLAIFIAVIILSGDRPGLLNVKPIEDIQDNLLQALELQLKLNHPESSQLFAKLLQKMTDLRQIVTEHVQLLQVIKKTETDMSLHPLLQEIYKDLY", "settings": "human epithelial cells"}, "PPARγ [5]": {"molecular_target": "T2, PPARγ (Mus musculus, UniProt P37238)", "T2 construct": "host or cells: mouse macrophage cells", "T2 sequence (P37238 1-505)": "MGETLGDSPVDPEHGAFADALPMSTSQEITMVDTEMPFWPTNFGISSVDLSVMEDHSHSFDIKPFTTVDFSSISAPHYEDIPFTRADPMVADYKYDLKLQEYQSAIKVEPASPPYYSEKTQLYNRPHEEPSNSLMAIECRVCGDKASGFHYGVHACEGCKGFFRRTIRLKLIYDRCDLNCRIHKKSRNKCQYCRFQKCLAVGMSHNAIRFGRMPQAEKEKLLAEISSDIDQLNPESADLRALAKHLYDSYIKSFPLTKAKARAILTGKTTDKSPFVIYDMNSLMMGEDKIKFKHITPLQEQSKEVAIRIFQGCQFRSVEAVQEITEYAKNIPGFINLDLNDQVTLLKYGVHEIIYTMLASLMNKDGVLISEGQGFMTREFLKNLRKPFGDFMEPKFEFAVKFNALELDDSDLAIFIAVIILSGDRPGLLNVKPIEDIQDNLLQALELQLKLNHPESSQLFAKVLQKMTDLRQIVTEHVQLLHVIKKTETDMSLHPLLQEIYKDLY", "settings": "mouse macrophage cells"}}, "note": "Where two headings read alike, the source gives them in different places.", "data": [{"smiles": "CCCCc1nc(Cl)c(CO)n1Cc1ccc(-c2ccccc2-c2nn[nH]n2)cc1", "note": "[losartan]", "values": [{"measurement": "verbal fluency", "setting": "cognitive function [1]", "result": "not"}, {"measurement": "word list memory and recall", "setting": "cognitive function [1]", "result": "improved"}]}, {"smiles": "CCCCC(=O)N(Cc1ccc(-c2ccccc2-c2nnn[nH]2)cc1)[C@H](C(=O)O)C(C)C", "note": "[valsartan]", "values": [{"measurement": "identification, verbal fluency, or word list recognition", "setting": "cognitive function [2]", "result": "did not influence"}, {"measurement": "word list memory and recall", "setting": "cognitive function [2]", "result": "improved"}]}, {"smiles": "CCCCCC/C=C/C=C\\CCCCCCCC(=O)O", "note": "[RA, cis-9, trans-11 linoleic acid]", "values": [{"measurement": "allergic responses mediated by inflammation", "setting": "[3]", "result": "reduced"}, {"measurement": "inflammatory responses via activation of PPARγ", "setting": "PPARγ [4]", "result": "reduced"}, {"measurement": "PPARγ activation", "setting": "PPARγ [5]", "result": "activated"}]}]}
